In patent US12643912B2, “Macrocyclic compounds, a process for their preparation and pharmaceutical compositions containing them” (LES LABORATOIRES SERVIER, priority 2020, dated 2026):
Like-named read-outs stand apart in the source and are kept apart here.

Columns and labels:
[1] = system: Nrf2 (Keap1-NRF2 nuclear translocation); assay: U2OS translocation assay (PathHunter U2OS Keap1-NRF2 Nuclear Translocation Cell Line); type: cell-based
Procedure, shortened: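 PathHunter U2OS line expressing Nrf2-enzyme-donor fusion and nuclear acceptor enzyme, 7 500 cells/well in Opti-MEM, 1% FBS. Compounds incubated 3 h at 37° C. Luminescence after 60 min with detection reagent, normalized between 1% DMSO and 10 μM andrographolide.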

[2] = biological target: T1, Keap1 (A321-C624) (h) (Homo sapiens, UniProt Q14145); assay: Surface Plasmon Resonance binding assay to Kelch domain of KEAP1; conditions: Biacore T200, 25° C., immobilized His-Thromb-KEAP1(A321-C624), single cycle kinetics, KD=kd/ka from 1:1 fit; read-out: Keap1 (A321-C624) (h) direct/SPR (KD)
T1 construct: His-Thromb-KEAP1(A321-C624) acquired from Novalix (batch PU-P01) was immobilized covalently by amine coupling; His tag (N); thrombin cleavage site (Thromb) (N); purchased Novalix batch PU-P01
Protocol: EXAMPLE 85: SURFACE PLASMON RESONANCE
Binding assay to Kelch domain of KEAP1 was performed by Surface Plasmon Resonance (SPR) on a Biacore T200 (GE Healthcare) at 25° C. using CM5 chip. His-Thromb-KEAP1(A321-C624) acquired from Novalix (batch PU-P01) was immobilized covalently by amine coupling using standard wizard protocol, at a concentration of 20 μg/mL in sodium acetate pH 5.5. The ligand was captured until 1250 RU was reached. Amine blank is used as the reference flow cell. Binding of analyte to the ligand was monitored in real time with associations of 180 seconds and a dissociation of 720 seconds. Association (ka) and dissociation (kd) rates were fitted with a simple 1:1 kinetic interaction model using Biacore T200 Evaluation Software (GE Healthcare). The equilibrium constant (KD=kd/ka) was calculated from these fitted parameters. […] The Biacore binding assay was performed with a flowrate of 50 μL/min using a running buffer of 10 mM HEPES (pH 7.4), 150 mM NaCl, 3 mM EDTA, 1 mM TCEP, 0.05% P20,5% DMSO. Double subtraction was used by subtracting both reference flow cell and previous blank cycle (with running buffer). Solvent correction was applied to correct DMSO bulk effect.

[3] = read-out: CELLULAR U2OS EC50, U2OS Keap1-NRF2 nuclear translocation cells, 3 h incubation, luminescence, normalized between 1% DMSO and 10 μM andrographolide
[4] = Homo sapiens, U2OS, 3 h, read-out: CELLULAR U2OS EC50 (nM), U2OS Keap1-NRF2 nuclear translocation cells, 3 h incubation, luminescence, normalized between 1% DMSO and 10 μM andrographolide

T1 sequence (Q14145 321-624): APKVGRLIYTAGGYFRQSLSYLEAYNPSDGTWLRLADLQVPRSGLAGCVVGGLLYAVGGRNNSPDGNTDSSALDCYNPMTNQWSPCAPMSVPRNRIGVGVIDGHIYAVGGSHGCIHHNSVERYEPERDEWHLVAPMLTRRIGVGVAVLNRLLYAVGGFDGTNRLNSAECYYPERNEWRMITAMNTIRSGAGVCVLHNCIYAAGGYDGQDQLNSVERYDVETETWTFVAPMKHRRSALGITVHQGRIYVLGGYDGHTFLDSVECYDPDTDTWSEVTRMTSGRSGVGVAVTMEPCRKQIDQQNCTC

| SMILES | Kd [2] | EC50 [1, 3] | EC50 [1, 4] |
| --- | --- | --- | --- |
| COc1cc2cc3c1OS(=O)(=O)N(Cc1cc(ccc1C)C(CC(=O)O)c1ccc4c(nnn4CCCCO2)c1C)C3 (single isomer, unassigned) [Example 16b, [24-Methoxy-4,31-dimethyl-27,27-dioxo-21,26-dioxa-27λ^6-thia-1,14,15,16-tetraazahexacyclo[20.5.3.1^3,70.1^9,130.0^12,160.0^25,29]dotriaconta-3(32),4,6,9(31),10,12,14,22,24,29-decaen-8-yl]acetic acid] | 1.73 nM | 108 nM |  |
| Cc1ccc2cc1CN1Cc3cc(cc(F)c3OS1(=O)=O)OCCCCn1nnc3c(C)c(ccc31)C2CC(=O)O (single isomer, unassigned) [Example 17a, [24-Fluoro-4,31-dimethyl-27,27-dioxo-21,26-dioxa-27λ^6-thia-1,14,15,16-tetraazahexacyclo[20.5.3.1^3,70.1^9,130.0^12,160.0^25,29]dotriaconta-3(32),4,6,9(31),10,12,14,22,24,29-decaen-8-yl]acetic acid] | 25.7 nM | 1660 nM |  |
| Cc1ccc2cc1CN1Cc3cc(cc(F)c3OS1(=O)=O)OCCCCn1nnc3c(C)c(ccc31)C2CC(=O)O (single isomer, unassigned) [Example 17b, [24-Fluoro-4,31-dimethyl-27,27-dioxo-21,26-dioxa-27λ^6-thia-1,14,15,16-tetraazahexacyclo[20.5.3.1^3,70.1^9,130.0^12,160.0^25,29]dotriaconta-3(32),4,6,9(31),10,12,14,22,24,29-decaen-8-yl]acetic acid] | 5.55 nM | 89 nM |  |
| Cc1c(F)cc2cc1CN1Cc3cc(ccc3OS1(=O)=O)OCCCCn1nnc3c(C)c(ccc31)C2CC(=O)O (single isomer, unassigned) [Example 18a, [5-Fluoro-4,31-dimethyl-27,27-dioxo-21,26-dioxa-27λ^6-thia-1,14,15,16-tetraazahexacyclo[20.5.3.1^3,70.1^9,130.0^12,160.0^25,29]dotriaconta-3(32),4,6,9(31),10,12,14,22,24,29-decaen-8-yl]acetic acid] | 3.67 nM | 1140 nM |  |
| Cc1c(F)cc2cc1CN1Cc3cc(ccc3OS1(=O)=O)OCCCCn1nnc3c(C)c(ccc31)C2CC(=O)O (single isomer, unassigned) [Example 18b, [5-Fluoro-4,31-dimethyl-27,27-dioxo-21,26-dioxa-27λ^6-thia-1,14,15,16-tetraazahexacyclo[20.5.3.1^3,70.1^9,130.0^12,160.0^25,29]dotriaconta-3(32),4,6,9(31),10,12,14,22,24,29-decaen-8-yl]acetic acid] | 1.01 nM | 91.3 nM |  |
| Cc1ccc2cc1CN1Cc3cc(c(Cl)cc3OS1(=O)=O)OCCCCn1nnc3c(C)c(ccc31)C2CC(=O)O (single isomer, unassigned) [Example 22a, [23-Chloro-4,31-dimethyl-27,27-dioxo-21,26-dioxa-27λ^6-thia-1,14,15,16-tetraazahexacyclo[20.5.3.1^3,70.1^9,130.0^12,160.0^25,29]dotriaconta-3(32),4,6,9(31),10,12,14,22,24,29-decaen-8-yl]acetic acid] | 0.631 nM | 17.2 nM |  |
| Cc1ccc2cc1CN1Cc3cc(c(Cl)cc3OS1(=O)=O)OCCCCn1nnc3c(C)c(ccc31)C2CC(=O)O (single isomer, unassigned) [Example 22b, [23-Chloro-4,31-dimethyl-27,27-dioxo-21,26-dioxa-27λ^6-thia-1,14,15,16-tetraazahexacyclo[20.5.3.1^3,70.1^9,130.0^12,160.0^25,29]dotriaconta-3(32),4,6,9(31),10,12,14,22,24,29-decaen-8-yl]acetic acid] | 2.11 nM | 111 nM |  |
| COCCC1CCOc2ccc3c(c2)CN([C@H](C)c2cc(ccc2C)[C@H](CC(=O)O)c2ccc4c(nnn4C1)c2C)S(=O)(=O)O3 (single isomer, unassigned) [Example 24a] | 1.1 nM | 7.28 nM |  |
| COCCC1CCOc2ccc3c(c2)CN([C@H](C)c2cc(ccc2C)[C@H](CC(=O)O)c2ccc4c(nnn4C1)c2C)S(=O)(=O)O3 (single isomer, unassigned) [Example 24b] | 1.23 nM | 2.45 nM |  |
| COCCC1CCOc2ccc3c(c2)CN([C@H](C)c2cc(ccc2C)[C@@H](CC(=O)O)c2ccc4c(nnn4C1)c2C)S(=O)(=O)O3 (single isomer, unassigned) [Example 24c] | 5 nM |  | 60 nM |
| COCCC1CCOc2ccc3c(c2)CN([C@H](C)c2cc(ccc2C)[C@@H](CC(=O)O)c2ccc4c(nnn4C1)c2C)S(=O)(=O)O3 (single isomer, unassigned) [Example 24d] | 4.32 nM | 36.4 nM |  |
| COc1cc2c3cc1OCCCCn1nnc4c(C)c(ccc41)C(CC(=O)O)c1ccc(C)c(c1)CN(C3)S(=O)(=O)O2 (single isomer, unassigned) [Example 25a, [23-Methoxy-4,31-dimethyl-27,27-dioxo-21,26-dioxa-27λ^6-thia-1,14,15,16-tetraazahexacyclo[20.5.3.1^3,70.1^9,130.0^12,160.0^25,29]dotriaconta-3(32),4,6,9(31),10,12,14,22,24,29-decaen-8-yl]acetic acid] | 0.562 nM | 14 nM |  |
| COc1cc2c3cc1OCCCCn1nnc4c(C)c(ccc41)C(CC(=O)O)c1ccc(C)c(c1)CN(C3)S(=O)(=O)O2 (single isomer, unassigned) [Example 25b, [23-Methoxy-4,31-dimethyl-27,27-dioxo-21,26-dioxa-27λ^6-thia-1,14,15,16-tetraazahexacyclo[20.5.3.1^3,70.1^9,130.0^12,160.0^25,29]dotriaconta-3(32),4,6,9(31),10,12,14,22,24,29-decaen-8-yl]acetic acid] | 1.16 nM | 56.8 nM |  |

More lines, main results first:

| Kd [2] | SMILES | EC50 [1, 3] | EC50 [1, 4] |
| --- | --- | --- | --- |
| 0.645 nM | Cc1ccc2cc1CN1Cc3cc(c(F)cc3OS1(=O)=O)OCCCCn1nnc3c(C)c(ccc31)C2CC(=O)O (single isomer, unassigned) [Example 32a, [23-Fluoro-4,31-dimethyl-27,27-dioxo-21,26-dioxa-27λ^6-thia-1,14,15,16-tetraazahexacyclo[20.5.3.1^3,70.1^9,130.0^12,160.0^25,29]dotriaconta-3(32),4,6,9(31),10,12,14,22,24,29-decaen-8-yl]acetic acid] | 20 nM |  |
| 2.02 nM | Cc1ccc2cc1CN1Cc3cc(c(F)cc3OS1(=O)=O)OCCCCn1nnc3c(C)c(ccc31)C2CC(=O)O (single isomer, unassigned) [Example 32b, [23-Fluoro-4,31-dimethyl-27,27-dioxo-21,26-dioxa-27λ^6-thia-1,14,15,16-tetraazahexacyclo[20.5.3.1^3,70.1^9,130.0^12,160.0^25,29]dotriaconta-3(32),4,6,9(31),10,12,14,22,24,29-decaen-8-yl]acetic acid] | 150 nM |  |
| 4.55 nM | Cc1c(Cl)cc2cc1CN1Cc3cc(ccc3OS1(=O)=O)OCCCCn1nnc3c(C)c(ccc31)C2CC(=O)O (single isomer, unassigned) [Example 33a, [5-Chloro-4,31-dimethyl-27,27-dioxo-21,26-dioxa-27λ^6-thia-1,14,15,16-tetraazahexacyclo[20.5.3.1^3,70.1^9,130.0^12,160.0^25,29]dotriaconta-3(32),4,6,9(31),10,12,14,22,24,29-decaen-8-yl]acetic acid] | 94.5 nM |  |
| 9.29 nM | Cc1c(Cl)cc2cc1CN1Cc3cc(ccc3OS1(=O)=O)OCCCCn1nnc3c(C)c(ccc31)C2CC(=O)O (single isomer, unassigned) [Example 33b, [5-Chloro-4,31-dimethyl-27,27-dioxo-21,26-dioxa-27λ^6-thia-1,14,15,16-tetraazahexacyclo[20.5.3.1^3,70.1^9,130.0^12,160.0^25,29]dotriaconta-3(32),4,6,9(31),10,12,14,22,24,29-decaen-8-yl]acetic acid] | 894 nM |  |
| 33600 nM | COc1cc2cc(c1OC)CN1Cc3cc(ccc3OS1(=O)=O)OCCCCn1nnc3c(C)c(ccc31)C2CC(=O)O (single isomer, unassigned) [Example 35a, [4,5-Dimethoxy-31-methyl-27,27-dioxo-21,26-dioxa-27λ^6-thia-1,14,15,16-tetraazahexacyclo[20.5.3.1^3,70.1^9,130.0^12,160.0^25,29]dotriaconta-3(32),4,6,9(31),10,12,14,22,24,29-decaen-8-yl]acetic acid] |  | > 3160 nM |
